From US20230085307A1, “PYRIDAZINONE COMPOUND AND HERBICIDE” (NISSAN CHEMICAL CORPORATION, priority 2019, published 2023)

Experiments:
[1] = tested on: chickweed; experiment: Test Example 5: herbicidal effect by foliage application, plastic box (Table 20, symbol P); assay type: in vivo, common chickweed (Stellaria media); conditions: foliage application, 320 g/ha, three weeks after application
Method in brief: (§1)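 Plants sown in sterilized diluvial soil and grown 14 days in a greenhouse at 25° C to 30° C, then sprayed on the foliage with the compound's emulsion diluted in water to a predetermined herbicide amount. Injury to weeds and crops scored three weeks after application on a visual rating scale.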

[2] = tested on: blackgrass; experiment: Test Example 5: herbicidal effect by foliage application, plastic box (Table 20, symbol J); assay type: in vivo, blackgrass (Alopecurus myosuroides); conditions: foliage application, 320 g/ha, three weeks after application
Method in brief: as §1

[3] = tested on: redroot pigweed; experiment: Test Example 4: herbicidal effect by soil treatment (Table 19, symbol N); assay type: in vivo, redroot pigweed (Amaranthus retroflexus); conditions: amount of applied herbicide 320 g/ha
Method in brief: (§2)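 Seeds were sown in sterilized diluvial soil and covered with about 1.5 cm of soil. An emulsion formulation diluted with water to a predetermined herbicide amount was sprayed evenly onto the soil surface. Plants grew in a greenhouse at 25° C. to 30° C., and the effect was scored three weeks after application using criteria from an earlier test.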

[4] = tested on: green foxtail; experiment: Test Example 5: herbicidal effect by foliage application, plastic box (Table 20, symbol G); assay type: in vivo, green foxtail (Setaria viridis); conditions: foliage application, 320 g/ha, three weeks after application
Method in brief: as §1

[5] = tested on: chickweed; experiment: Test Example 4: herbicidal effect by soil treatment (Table 19, symbol P); assay type: in vivo, common chickweed (Stellaria media); conditions: amount of applied herbicide 320 g/ha
Method in brief: as §2

[6] = tested on: oval-leafed pondweed; experiment: Test Example 2: herbicidal activity, application during weed generation under submerged conditions (Table 17, symbol C); assay type: in vivo, oval-leafed pondweed (Monochoria vaginalis); conditions: AAH 320 g/ha; application during weed generation, submerged conditions
Method in brief: (§3)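 Alluvial soil in Wagner pots was flooded to 4 cm depth and sown with the three weeds together; pots were kept in a greenhouse at 25° C. to 30° C. At the one to two leaf stage, an emulsion formulation diluted in water to a set rate went onto the water surface; scored three weeks later.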

[7] = tested on: false cleavers; experiment: Test Example 5: herbicidal effect by foliage application, plastic box (Table 20, symbol Q); assay type: in vivo, false cleavers (Galium spurium); conditions: foliage application, 320 g/ha, three weeks after application
Method in brief: as §1

[8] = tested on: windgrass; experiment: Test Example 5: herbicidal effect by foliage application, plastic box (Table 20, symbol L); assay type: in vivo, windgrass (Apera spica-venti); conditions: foliage application, 320 g/ha, three weeks after application
Method in brief: as §1

[9] = tested on: southern crabgrass; experiment: Test Example 5: herbicidal effect by foliage application, plastic box (Table 20, symbol F); assay type: in vivo, southern crabgrass (Digitaria ciliaris); conditions: foliage application, 320 g/ha, three weeks after application
Method in brief: as §1

[10] = tested on: green foxtail; experiment: Test Example 4: herbicidal effect by soil treatment (Table 19, symbol G); assay type: in vivo, green foxtail (Setaria viridis); conditions: amount of applied herbicide 320 g/ha
Method in brief: as §2

[11] = tested on: wild oat; experiment: Test Example 4: herbicidal effect by soil treatment (Table 19, symbol I); assay type: in vivo, wild oat (Avena fatua); conditions: amount of applied herbicide 320 g/ha
Method in brief: as §2

[12] = tested on: Italian ryegrass; experiment: Test Example 5: herbicidal effect by foliage application, plastic box (Table 20, symbol K); assay type: in vivo, Italian ryegrass (Lolium multiflorum); conditions: foliage application, 320 g/ha, three weeks after application
Method in brief: as §1

[13] = tested on: windgrass; experiment: Test Example 4: herbicidal effect by soil treatment (Table 19, symbol L); assay type: in vivo, windgrass (Apera spica-venti); conditions: amount of applied herbicide 320 g/ha
Method in brief: as §2

[14] = tested on: Japanese bulrush; experiment: Test Example 1: herbicidal activity, application before weed generation under submerged conditions (Table 16, symbol B); assay type: in vivo, Japanese bulrush (Schoenoplectus juncoides); conditions: amount of applied herbicide 320 g/ha
Method in brief: (§4)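 Emulsion formulation, water-diluted to set dose, was put onto the flooded surface (4 cm depth, alluvial soil) the same day weeds were sown and 2.5-leaf rice transplanted. After 3 weeks at 25-30 °C under glass, each species was rated 0 (≤5% kill) to 5 (≥90% kill).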

[15] = tested on: barnyard grass; experiment: Test Example 5: herbicidal effect by foliage application, plastic box (Table 20, symbol H); assay type: in vivo, barnyard grass (Echinochloa crus-galli); conditions: foliage application, 320 g/ha, three weeks after application
Method in brief: as §1

[16] = tested on: redroot pigweed; experiment: Test Example 5: herbicidal effect by foliage application, plastic box (Table 20, symbol N); assay type: in vivo, redroot pigweed (Amaranthus retroflexus); conditions: foliage application, 320 g/ha, three weeks after application
Method in brief: as §1

[17] = tested on: false cleavers; experiment: Test Example 4: herbicidal effect by soil treatment (Table 19, symbol Q); assay type: in vivo, false cleavers (Galium spurium); conditions: amount of applied herbicide 320 g/ha
Method in brief: as §2

[18] = tested on: Japanese bulrush; experiment: Test Example 2: herbicidal activity, application during weed generation under submerged conditions (Table 17, symbol B); assay type: in vivo, Japanese bulrush (Schoenoplectus juncoides); conditions: AAH 320 g/ha; application during weed generation, submerged conditions
Method in brief: as §3

[19] = tested on: velvetleaf; experiment: Test Example 5: herbicidal effect by foliage application, plastic box (Table 20, symbol M); assay type: in vivo, velvetleaf (Abutilon theophrasti); conditions: foliage application, 320 g/ha, three weeks after application
Method in brief: as §1

[20] = tested on: lambsquarters; experiment: Test Example 4: herbicidal effect by soil treatment (Table 19, symbol O); assay type: in vivo, lambsquarters (Chenopodium album); conditions: amount of applied herbicide 320 g/ha
Method in brief: as §2

[21] = tested on: barnyard grass; experiment: Test Example 4: herbicidal effect by soil treatment (Table 19, symbol H); assay type: in vivo, barnyard grass (Echinochloa crus-galli); conditions: amount of applied herbicide 320 g/ha
Method in brief: as §2

[22] = tested on: wild oat; experiment: Test Example 5: herbicidal effect by foliage application, plastic box (Table 20, symbol I); assay type: in vivo, wild oat (Avena fatua); conditions: foliage application, 320 g/ha, three weeks after application
Method in brief: as §1

[23] = tested on: blackgrass; experiment: Test Example 4: herbicidal effect by soil treatment (Table 19, symbol J); assay type: in vivo, blackgrass (Alopecurus myosuroides); conditions: amount of applied herbicide 320 g/ha
Method in brief: as §2

[24] = tested on: late watergrass; experiment: Test Example 1: herbicidal activity, application before weed generation under submerged conditions (Table 16, symbol A); assay type: in vivo, late watergrass (Echinochloa oryzicola); conditions: amount of applied herbicide 320 g/ha
Method in brief: as §4

[25] = tested on: Italian ryegrass; experiment: Test Example 4: herbicidal effect by soil treatment (Table 19, symbol K); assay type: in vivo, Italian ryegrass (Lolium multiflorum); conditions: amount of applied herbicide 320 g/ha
Method in brief: as §2

[26] = tested on: southern crabgrass; experiment: Test Example 4: herbicidal effect by soil treatment (Table 19, symbol F); assay type: in vivo, southern crabgrass (Digitaria ciliaris); conditions: amount of applied herbicide 320 g/ha
Method in brief: as §2

[27] = tested on: oval-leafed pondweed; experiment: Test Example 1: herbicidal activity, application before weed generation under submerged conditions (Table 16, symbol C); assay type: in vivo, oval-leafed pondweed (Monochoria vaginalis); conditions: amount of applied herbicide 320 g/ha
Method in brief: as §4

[28] = tested on: velvetleaf; experiment: Test Example 4: herbicidal effect by soil treatment (Table 19, symbol M); assay type: in vivo, velvetleaf (Abutilon theophrasti); conditions: amount of applied herbicide 320 g/ha
Method in brief: as §2

[29] = tested on: lambsquarters; experiment: Test Example 5: herbicidal effect by foliage application, plastic box (Table 20, symbol O); assay type: in vivo, lambsquarters (Chenopodium album); conditions: foliage application, 320 g/ha, three weeks after application
Method in brief: as §1

[30] = tested on: persian speedwell; experiment: Test Example 4: herbicidal effect by soil treatment (Table 19, symbol R); assay type: in vivo, Persian speedwell (Veronica persica); conditions: amount of applied herbicide 320 g/ha
Method in brief: as §2

[31] = tested on: late watergrass; experiment: Test Example 2: herbicidal activity, application during weed generation under submerged conditions (Table 17, symbol A); assay type: in vivo, late watergrass (Echinochloa oryzicola); conditions: AAH 320 g/ha; application during weed generation, submerged conditions
Method in brief: as §3

[32] = tested on: persian speedwell; experiment: Test Example 5: herbicidal effect by foliage application, plastic box (Table 20, symbol R); assay type: in vivo, Persian speedwell (Veronica persica); conditions: foliage application, 320 g/ha, three weeks after application
Method in brief: as §1

**Q.** Which “P: chickweed, herbicidal effect grade” value [1] does the source give for `CCCC(=O)Oc1c(C)nn(C)c(=O)c1-c1c(-c2ccc(F)cc2)sc2cc(OC)ccc12` [3-064] here?
**A.** 5 (Herbicidal rate of 90% or more (almost completely withered))

**Q.** And the “J: blackgrass, herbicidal effect grade” value [2]?
**A.** 0 (Herbicidal rate of 5% or less (almost no effect))

**Q.** And the “N: redroot pigweed, herbicidal effect grade” value [3]?
**A.** 2 (Herbicidal rate of 20% or more and less than 40%)

**Q.** What about the “G: green foxtail, herbicidal effect grade” value [4] of the same molecule?
**A.** 0 (Herbicidal rate of 5% or less (almost no effect))

**Q.** And the “P: chickweed, herbicidal effect grade” value [5]?
**A.** 4 (Herbicidal rate of 70% or more and less than 90%)

**Q.** What about the “herbicidal effect rating, C: oval-leafed pondweed” value [6] of the same molecule?
**A.** 3 (Herbicidal rate of 40% or more and less than 70%)

**Q.** What about the “Q: false cleavers, herbicidal effect grade” value [7] of the same molecule?
**A.** 0 (Herbicidal rate of 5% or less (almost no effect))

**Q.** And the “L: windgrass, herbicidal effect grade” value [8]?
**A.** 0 (Herbicidal rate of 5% or less (almost no effect))

**Q.** And the “F: southern crabgrass, herbicidal effect grade” value [9]?
**A.** 0 (Herbicidal rate of 5% or less (almost no effect))

**Q.** And the “G: green foxtail, herbicidal effect grade” value [10]?
**A.** 0 (Herbicidal rate of 5% or less (almost no effect))

**Q.** What about the “I: wild oat, herbicidal effect grade” value [11] of the same molecule?
**A.** 0 (Herbicidal rate of 5% or less (almost no effect))

**Q.** What about the “K: Italian ryegrass, herbicidal effect grade” value [12] of the same molecule?
**A.** 0 (Herbicidal rate of 5% or less (almost no effect))

**Q.** What about the “L: windgrass, herbicidal effect grade” value [13] of the same molecule?
**A.** 0 (Herbicidal rate of 5% or less (almost no effect))

**Q.** And the “Herbicidal effect, B: Japanese bulrush” value [14]?
**A.** 3 (Herbicidal rate of 40% or more and less than 70%)

**Q.** And the “H: barnyard grass, herbicidal effect grade” value [15]?
**A.** 0 (Herbicidal rate of 5% or less (almost no effect))

**Q.** What about the “N: redroot pigweed, herbicidal effect grade” value [16] of the same molecule?
**A.** 0 (Herbicidal rate of 5% or less (almost no effect))

**Q.** What about the “Q: false cleavers, herbicidal effect grade” value [17] of the same molecule?
**A.** 0 (Herbicidal rate of 5% or less (almost no effect))

**Q.** What about the “herbicidal effect rating, B: Japanese bulrush” value [18] of the same molecule?
**A.** 1 (Herbicidal rate of 5% or more and less than 20%)

**Q.** What about the “M: velvetleaf, herbicidal effect grade” value [19] of the same molecule?
**A.** 1 (Herbicidal rate of 5% or more and less than 20%)

**Q.** What about the “O: lambsquarters, herbicidal effect grade” value [20] of the same molecule?
**A.** 3 (Herbicidal rate of 40% or more and less than 70%)

**Q.** And the “H: barnyard grass, herbicidal effect grade” value [21]?
**A.** 0 (Herbicidal rate of 5% or less (almost no effect))

**Q.** What about the “I: wild oat, herbicidal effect grade” value [22] of the same molecule?
**A.** 0 (Herbicidal rate of 5% or less (almost no effect))

**Q.** And the “J: blackgrass, herbicidal effect grade” value [23]?
**A.** 0 (Herbicidal rate of 5% or less (almost no effect))

**Q.** And the “Herbicidal effect, A: late watergrass” value [24]?
**A.** 0 (Herbicidal rate of 5% or less (almost no effect))

**Q.** And the “K: Italian ryegrass, herbicidal effect grade” value [25]?
**A.** 0 (Herbicidal rate of 5% or less (almost no effect))

**Q.** And the “F: southern crabgrass, herbicidal effect grade” value [26]?
**A.** 0 (Herbicidal rate of 5% or less (almost no effect))

**Q.** What about the “Herbicidal effect, C: oval-leafed pondweed” value [27] of the same molecule?
**A.** 4 (Herbicidal rate of 70% or more and less than 90%)

**Q.** And the “M: velvetleaf, herbicidal effect grade” value [28]?
**A.** 0 (Herbicidal rate of 5% or less (almost no effect))

**Q.** And the “O: lambsquarters, herbicidal effect grade” value [29]?
**A.** 2 (Herbicidal rate of 20% or more and less than 40%)

**Q.** And the “R: persian speedwell, herbicidal effect grade” value [30]?
**A.** 4 (Herbicidal rate of 70% or more and less than 90%)

**Q.** What about the “herbicidal effect rating, A: late watergrass” value [31] of the same molecule?
**A.** 0 (Herbicidal rate of 5% or less (almost no effect))

**Q.** And the “R: persian speedwell, herbicidal effect grade” value [32]?
**A.** 4 (Herbicidal rate of 70% or more and less than 90%)
